According to the supplement of paper PMC6045584:
± gives the standard deviation of the averaged measurements.

How the values were obtained:
[1] = compound: T1, CC1(C)CC(=O)c2c(C(F)(F)F)nn(-c3ccc(C(N)=O)c(N[C@H]4CC[C@H](OC(=O)CN)CC4)c3)c2C1 [SNX-5422]; test: surviving fraction relative to DMSO-only wells; higher = less growth inhibition; details: exposure time: 5 days
How it was run: (§1)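 After seeding at 250–500 cells per well in 384-well plates and a 24-hour wait, log-phase tumour cell lines were exposed without interruption for five days to inhibitors at 0.5, 1, 5, 10, 50, 100, 500 and 1000 nM. CellTiter-Glo luminescence was recorded after 10 minutes at room temperature. Viability is reported as surviving fraction, the luminescence normalised to the median of DMSO-only wells.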

[2] = compound: T2, CC[C@@H]1C(=O)N(C)c2cnc(Nc3ccc(C(=O)NC4CCN(C)CC4)cc3OC)nc2N1C1CCCC1 [BI-2536]; test: as above; details: exposure time: 5 days
How it was run: as §1

[3] = compound: Nc1nc2[nH]cnc2c(=S)[nH]1 [TIOGUANINE]; test: as above; details: exposure time: 5 days
How it was run: as §1

[4] = compound: Cn1cc(C2=Nc3cc(NC(=O)C(N)C4CCCCC4)cc4c3C2=CNNC4=O)cn1; test: as above; details: exposure time: 5 days
How it was run: as §1

[5] = compound: T3, C=CC(=O)Nc1cc2c(Nc3ccc(F)c(Cl)c3)ncnc2cc1OCCCN1CCOCC1 [CANERTINIB]; test: as above; details: exposure time: 5 days
How it was run: as §1

[6] = compound: T4, CN(C)C/C=C/C(=O)Nc1cc2c(Nc3ccc(F)c(Cl)c3)ncnc2cc1O[C@H]1CCOC1 [AFATINIB]; test: as above; details: exposure time: 5 days
How it was run: as §1

[7] = compound: T5, CCCCCCCCCCCCCCCC(=O)Nc1ccn([C@@H]2O[C@H](CO)[C@@H](O)[C@@H]2C#N)c(=O)n1 [SAPACITABINE]; test: as above; details: exposure time: 5 days
How it was run: as §1

[8] = compound: T6, CNC(=O)c1ccc(N2C(=S)N(c3ccc(C#N)c(C(F)(F)F)c3)C(=O)C2(C)C)cc1F [MDV3100]; test: as above; details: exposure time: 5 days
How it was run: as §1

[9] = compound: T1, SNX-5422; test: area under dose-response curve of surviving fraction (unscaled, Aref=0) (surviving fraction x log10(nM)); higher = more resistant; details: exposure time: 5 days; dose range 0.5-1000 nM
How it was run: (§2)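 Tumour cell lines in 384-well plates were exposed for five days to eight inhibitor concentrations from 0.5 to 1000 nM. Viability was read by CellTiter-Glo luminescence, normalised to DMSO-only wells, in three screens per line. Dose-response survival curves were fitted to surviving fractions by 3-parameter logistic regression in the drc R package. Area under the curve is the unscaled activity area (Aref = 0) over log10 dose.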

[10] = compound: T2, BI-2536; test: as above; details: exposure time: 5 days; dose range 0.5-1000 nM
How it was run: as §2

[11] = compound: Cn1cc(C2=Nc3cc(NC(=O)C(N)C4CCCCC4)cc4c3C2=CNNC4=O)cn1; test: as above; details: exposure time: 5 days; dose range 0.5-1000 nM
How it was run: as §2

[12] = compound: T3, CANERTINIB; test: as above; details: exposure time: 5 days; dose range 0.5-1000 nM
How it was run: as §2

[13] = compound: T4, AFATINIB; test: as above; details: exposure time: 5 days; dose range 0.5-1000 nM
How it was run: as §2

[14] = compound: T5, SAPACITABINE; test: as above; details: exposure time: 5 days; dose range 0.5-1000 nM
How it was run: as §2

[15] = compound: T6, MDV3100; test: as above; details: exposure time: 5 days; dose range 0.5-1000 nM
How it was run: as §2

SUM149 BREAST
surviving fraction ([1]; 0.5 nM): 0.982 ± 0.046 | surviving fraction ([1]; 1 nM): 0.986 ± 0.14 | surviving fraction ([1]; 5 nM): 1.09 ± 0.1 | surviving fraction ([1]; 10 nM): 0.951 ± 0.097 | surviving fraction ([1]; 50 nM): 0.0727 ± 0.0076 | surviving fraction ([1]; 100 nM): 0.082 ± 0.0095 | surviving fraction ([1]; 500 nM): 0.0233 ± 0.0021 | surviving fraction ([1]; 1000 nM): 0.0287 ± 0.0015 | surviving fraction ([2]; 0.5 nM): 1.05 ± 0.054 | surviving fraction ([2]; 1 nM): 0.906 ± 0.091 | surviving fraction ([2]; 5 nM): 0.122 ± 0.012 | surviving fraction ([2]; 10 nM): 0.0487 ± 0.0035 | surviving fraction ([2]; 50 nM): 0.0743 ± 0.0057 | surviving fraction ([2]; 100 nM): 0.0903 ± 0.014 | surviving fraction ([2]; 500 nM): 0.084 ± 0.01 | surviving fraction ([2]; 1000 nM): 0.0603 ± 0.0065 | surviving fraction ([3]; 0.5 nM): 1.06 ± 0.068 | surviving fraction ([3]; 1 nM): 0.998 ± 0.076 | surviving fraction ([3]; 5 nM): 1.11 ± 0.068 | surviving fraction ([3]; 10 nM): 1.05 ± 0.058 | surviving fraction ([3]; 50 nM): 0.984 ± 0.029 | surviving fraction ([3]; 100 nM): 1.06 ± 0.082 | surviving fraction ([3]; 500 nM): 1.01 ± 0.067 | surviving fraction ([3]; 1000 nM): 1.05 ± 0.058 | surviving fraction ([4]; 0.5 nM): 0.875 ± 0.087 | surviving fraction ([4]; 1 nM): 0.854 ± 0.13 | surviving fraction ([4]; 5 nM): 0.874 ± 0.14 | surviving fraction ([4]; 10 nM): 0.911 ± 0.1 | surviving fraction ([4]; 50 nM): 0.481 ± 0.067 | surviving fraction ([4]; 100 nM): 0.238 ± 0.047 | surviving fraction ([4]; 500 nM): 0.0587 ± 0.0096 | surviving fraction ([4]; 1000 nM): 0.063 ± 0.0062 | surviving fraction ([5]; 0.5 nM): 0.898 ± 0.078 | surviving fraction ([5]; 1 nM): 0.832 ± 0.052 | surviving fraction ([5]; 5 nM): 0.627 ± 0.029 | surviving fraction ([5]; 10 nM): 0.531 ± 0.04 | surviving fraction ([5]; 50 nM): 0.451 ± 0.053 | surviving fraction ([5]; 100 nM): 0.424 ± 0.072 | surviving fraction ([5]; 500 nM): 0.324 ± 0.037 | surviving fraction ([5]; 1000 nM): 0.279 ± 0.037 | surviving fraction ([6]; 0.5 nM): 1.03 ± 0.076 | surviving fraction ([6]; 1 nM): 1.05 ± 0.033 | surviving fraction ([6]; 5 nM): 0.703 ± 0.12 | surviving fraction ([6]; 10 nM): 0.573 ± 0.089 | surviving fraction ([6]; 50 nM): 0.481 ± 0.056 | surviving fraction ([6]; 100 nM): 0.439 ± 0.013 | surviving fraction ([6]; 500 nM): 0.4053 ± 0.004 | surviving fraction ([6]; 1000 nM): 0.339 ± 0.044 | surviving fraction ([7]; 0.5 nM): 0.829 ± 0.11 | surviving fraction ([7]; 1 nM): 0.666 ± 0.055 | surviving fraction ([7]; 5 nM): 0.69 ± 0.11 | surviving fraction ([7]; 10 nM): 0.188 ± 0.006 | surviving fraction ([7]; 50 nM): 0.339 ± 0.031 | surviving fraction ([7]; 100 nM): 0.22 ± 0.018 | surviving fraction ([7]; 500 nM): 0.236 ± 0.016 | surviving fraction ([7]; 1000 nM): 0.186 ± 0.021 | surviving fraction ([8]; 0.5 nM): 1.03 ± 0.047 | surviving fraction ([8]; 1 nM): 0.922 ± 0.087 | surviving fraction ([8]; 5 nM): 0.897 ± 0.038 | surviving fraction ([8]; 10 nM): 0.36 ± 0.043 | surviving fraction ([8]; 50 nM): 1.07 ± 0.095 | surviving fraction ([8]; 100 nM): 0.951 ± 0.021 | surviving fraction ([8]; 500 nM): 1.01 ± 0.092 | surviving fraction ([8]; 1000 nM): 0.546 ± 0.013 | area under dose-response curve [9]: 1.7 | area under dose-response curve [10]: 0.784 | area under dose-response curve [11]: 1.97 | area under dose-response curve [12]: 1.76 | area under dose-response curve [13]: 1.98 | area under dose-response curve [14]: 1.31 | area under dose-response curve [15]: 2.73
